5 compounds from ChEMBL document CHEMBL1921691, “Synthesis and growth regulatory activity of a prototype member of a new family of aminothiol radioprotectors” (Bioorg Med Chem Lett, 2011) can be followed below.

The source made the active and inactive calls. No cut-off for these calls is given here.

One assay has as its system Rattus norvegicus. Briefly: Protection against 17.33 Gy radiation induced-dermatitis in rat compound administered topically 4 times in 2 hrs prior irradiation measured after 13 days. It is filed as functional, organism-based.
Settings: not given
In the case of `CNCC(CS)CNC`, the result was Active.

Another assay is filed under the species Homo sapiens. Briefly: Antiproliferative activity against log phase culture of human fibroblasts assessed as growth inhibition after 4 days. It counts as functional. The conditions noted are these: Fibroblast.
As for `CNCC(CS)CNC`, the “growth inhibition (GI)” value was “Active”. As for `CCNCCCCNCCCCNCCCCNC/C=C(/CS)CNCCCCNCCCCNCCCCNCC`, the “growth inhibition (GI)” value was “Active”.

For `CCNCCCCNCCCCNC/C=C(/CS)CNCCCCNCCCCNCC`, the “growth inhibition (GI)” value was “Active”. Same read-out and setting: for `CCNCCCCNCCCCNCCCCNCCCCNC/C=C(/CS)CNCCCCNCCCCNCCCCNCCCCNCC` the value was “Active”. On the same count and under the same terms, with `CCNCCCCNC/C=C(/CS)CNCCCCNCC` the entry was “Active”.
